Reference: patent US20200282009A1, “METHODS OF TREATING DISEASES ASSOCIATED WITH VASCULAR SMOOTH MUSCLE CELL PROLIFERATION” (BioLineRx Ltd., priority 2017, published 2020)
[ ]: non-standard residue; d: D form. The star is where a group is joined. Benzoyl(4-F) = O=C(c1ccc(F)cc1)*; Cit = NC(=O)NCCC[C@H](N)C(=O)O

Tests used:
SK-N-BE(2) cells = experiment: Cell survival assay (PI staining, FACS); assay type: cell-based, human; details: BL-8040 0-20 μM or AMD3100 10 and 20 μM, 24 hours
Protocol: (§1) A total of 1×10^5 cells/mL were cultured in 24-well plates with […] RPMI 1640 medium supplemented with 10% FCS. 24 hours later, the medium was changed to RPMI 1640 supplemented with either 1% FCS, with BL-8040 or AMD3100 or ABT199. Then 24 hours later, the cells were harvested, washed, and stained with PI (Sigma). The number of live cells was counted and analyzed using FACS analysis.

SK-N-BE(2)-CXCR4 cells = experiment: Cell survival assay (PI staining, FACS); assay type: cell-based, human; details: SK-N-BE(2)-CXCR4 vs native cell line; 0, 10 and 20 μM, 24 hours
Protocol: as §1
In order to stably overexpress CXCR4, SK-N-BE(2) cells were transduced with the lentiviral bicistronic vector harboring a CXCR4 expression cassette. This was done using a three-plasmid system: pHR′-CMVCXCR4-IRES-GFP-WPRE; envelope coding plasmid VSV-G and a packaging construct CMVDR8.91 according to previously published protocol (23). For transduction of SK-N-BE(2) cells, 1 ml of viral supernatant was used, which is equivalent to an m.o.i. of ˜9.

[1] = test system: miR-15a, miR-16-1, BCL-2, CCND1; experiment: qPCR of RNA from xenograft tumors; assay type: in vivo, NSG mice; details: treated vs un-treated tumors
Protocol: Total RNA from various cell lines and mouse tissues was isolated using Trizol reagent (Invitrogen) according to the manufacture's protocol, followed by DNaseI treatment using the DNaseI Kit where needed (Ambion). The concentrations were measured by Nanodrop (ND spectrophotometer) and the integrity was analyzed by gel electrophoreses on 1% agarose gel.
cDNA was synthesized from 0.5-1 μg total RNA using the Quanta Biosciences qScript™ cDNA Synthesis Kit (95047-100) for mRNA analysis, and using the qScript™ microRNA cDNA Synthesis Kit (95107-100) for miRNAs analysis. Quantiative PCR (qPCR) of miRNAs and mRNA was performed using the CFX384, C1000 touch thermal cycler (Bio-Rad) and a SYBR Green PCR Kit: Quanta Cat. #84018 and #84071, respectively. The fold expression and statistical significance were calculated using the 2-ΔΔ Ct method. All experiments were performed in triplicate.
(§2) Human SK-N-BE(2) cells were orthotopically injected into the left adrenal gland of 6-8 weeks old NSG mice. A 27-gauge needle was introduced through the left adrenal fat pad and 5×10∧5 cells/20 μl PBS were inoculated to the adrenal gland. NSG mice were maintained under defined flora conditions at the Hebrew University Pathogen-Free Animal Facility. Tumor growth and volume were monitored bi-weekly by using T2-weighted MRI until tumors reached the ethical limit volume and mice were randomized to drug-treated or control mice. Mice in the treated group were subjected to 2 treatment protocols. In the first treatment protocol BL-8040 (400 μg) was injected daily, starting three days following inoculation, and was continued for 35 days. In the second treatment protocol mice were monitored for 21 days. As of day 7, mice were treated with a daily injection of BL-8040 (400 μg) for 14 consecutive days.

Ki67, Cyclin D1, BCL-2 = experiment: Immunohistochemistry of xenograft tumor sections; assay type: in vivo, NSG mice
Protocol: For histological analysis, tumor tissue was cut into […] sections, deparaffinized with xylene, and hydrated through graded ethanol. Endogenous peroxidase was blocked by incubation for 5 minutes in 3% H2O2. A 25-mM citrate buffer (pH 6.0) was used for antigen retrieval, cooked in a pressure cooker for 20 minutes, and left to cool for 30 minutes at room temperature. Slides were washed in Optimax (Pharmatrade) and incubated with primary Ab diluted in CAS-Block (Zymed Laboratories). For Ki67 1:100 (Thermo Scientific), for CXCR4 anti-human CXCR4 monoclonal antibody clone 12G5 1:100 (R&D), for CXCL12 monoclonal CXCL12 antibody 79018 (R&D), for BCL-2 monoclonal BCL-2 antibody clone 124 (cell marque) and for cyclinD1 monoclonal BCL-1 antibody clone sp4 (spring). Staining overnight at 4° C. For all stainings, a conjugated horseradish peroxidase secondary Ab anti mouse or anti rabbit (Envision; Dako) was used for 30 minutes and developing was done with diaminobenzidine for 5 minutes followed by counterstaining with hematoxylin. For ki67, BCL-2 and Cyclin D1, staining levels were quantified using the Image Pro Analyzer image analysis software.
as §2

[2] = test system: BCL-2, cycD1, pERK in SK-N-BE(2) cells; experiment: Western blot analysis of treated cells; assay type: cell-based, human; details: 20 μM, 24 hours
Protocol: SK-N-BE(2) cells were seeded into a 12-well plate at 2×10^5/1 ml of medium per well. The cells were incubated for 48 hours and supernatants were collected. For whole cells: tumor samples and cells were lysed by the addition of lysis buffer containing 50 mM Tris-HCl PH 7.6, 150 mM NaCl, 5 mM EDTA pH 8, 0.5% NP40 and protease inhibitor cocktail (Roche Diagnostics). Lysate was incubated with buffer for 15-20 minutes and then centrifuges at 14,000 rpm, 15 min, at 4° C. Protein amounts were determined by Bradford assay (Bio-Rad).
Protein extracts were equally loaded onto 10% SDS-polyacrylamide gel, electrophorized and transferred onto a polyvinylidenedifluoride (PVDF) membrane (Bio-Rad Laboratories). Then, membranes were blocked and incubated with primary specific antibody O.N. at 4° C. For BCL-2 mouse monoclonal (Abcam). For cycD1 rabbit monoclonal (Thermo). For pERK1/2 rabbit monoclonal (Cell signaling). For β-Actin mouse monoclonal (MP biomedicals). After the washing procedure (3 times, 10 min in washing solution), the membrane was incubated with a secondary immunopure HRP-conjugated antibody, anti-mouse or anti rabbit (Envision; Dako) (1/10,000), washed (5 times, 6 min) and detected with the EZ-ECL kit (Biological Industries). Photon emission was identified by ChemiDoc MP imaging system (Bio-Rad). Intensities of protein bands were quantified by computerized densitometry using Image lab software (Bio-Rad).

[3] = test system: BCL-2, cycD1, pERK in Shy-SY5Y cells; experiment: Western blot analysis of treated cells; assay type: cell-based, human; details: 20 μM, 24 hours
CXCR4 receptor = CXCR4 receptor (Homo sapiens, UniProt P61073); details: Peled et al. 2012; cited from earlier work
Sequence of CXCR4 receptor (P61073 whole entry): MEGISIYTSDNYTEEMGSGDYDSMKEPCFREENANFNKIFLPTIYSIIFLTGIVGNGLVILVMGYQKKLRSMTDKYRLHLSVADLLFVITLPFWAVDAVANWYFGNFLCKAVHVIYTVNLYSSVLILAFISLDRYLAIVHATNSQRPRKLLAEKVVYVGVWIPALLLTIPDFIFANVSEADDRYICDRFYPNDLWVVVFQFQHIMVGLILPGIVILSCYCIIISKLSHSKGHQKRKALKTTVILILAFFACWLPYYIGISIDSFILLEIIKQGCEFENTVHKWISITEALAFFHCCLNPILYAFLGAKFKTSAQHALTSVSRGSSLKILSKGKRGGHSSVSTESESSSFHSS

[4] = test system: CXCR4-expressing malignancies; details: multiple myeloma, AML, CML, non-small cell lung cancer, metastatic breast cancer; cited from earlier work

Substance: 4F-benzoyl-Arg-Arg-Nal-Cys-Tyr-Cit-Lys-DLys-Pro-Tyr-Arg-Cit-Cys-Arg-NH2 ({Benzoyl(4-F)}-RR[Nal]CY[Cit]K[dK]PYR[Cit]CR-NH2; not fully specified; printed as 4F-benzoyl-Arg-Arg-Nal-Cys-Tyr-Cit-Lys-DLys-Pro-Tyr-Arg-Cit-Cys-Arg-NH2; cysteine pairing not given here) [BL-8040]
- cell viability (viable cells counted) (SK-N-BE(2) cells): decreased viability
- sensitivity to BL-8040 treatment in-vitro (viability) (SK-N-BE(2)-CXCR4 cells): increased sensitivity
- BCL-2 mRNA in tumors (qPCR) [1]: significantly downregulated
- CCND1 mRNA in tumors (qPCR) [1]: significantly downregulated
- miR-15a level in tumors (qPCR) ([1]; n=9): significantly elevated
- miR-16-1 level in tumors (qPCR) ([1]; n=9): significantly elevated
- Ki67 staining of tumor sections (Ki67, Cyclin D1, BCL-2; 400 μg daily for 14 days from day 7, compared to controls): reduced Ki67 staining
- reduction in Cyclin D1 expression, tumor sections (IHC) (Ki67, Cyclin D1, BCL-2; treated vs control sections, significant): 56%
- reduction in BCL-2 staining, tumor sections (IHC) (Ki67, Cyclin D1, BCL-2; treated vs control, staining weak, difference not significant): 36%
- BCL-2 protein (western blot) [2]: reduction
- ERK phosphorylation (western blot) [2]: decreased ERK phosphorylation
- cycD1 protein (western blot) [2]: reduction
- BCL-2 protein (western blot) [3]: reduction
- ERK phosphorylation (western blot) [3]: decreased ERK phosphorylation
- cycD1 protein (western blot) [3]: reduction
- affinity of binding to the CXCR4 receptor (CXCR4 receptor): high affinity
- receptor occupancy (CXCR4 receptor): long receptor occupancy
- effects on CXCR4-expressing malignancies [4]: toxic effects
